In patent US20140066389A1, “METHOD AND PHARMACEUTICAL TO TREAT SPINAL DISCS” (priority 2000, published 2014):

Test system: spinal disc
Test: Disc injections containing only one constituent
Type: in vivo
Conditions: injections with only one of glucosamine and chondroitin sulfate
Text: Common to all formulations according to this invention is the inclusion, in an injectable tolerated by the spinal disc, of both glucosamine and chondroitin sulfate (in a buffered injectable solution).

| Molecule | value of the injection |
| --- | --- |
| chondroitin sulfate | without value |
| N[C@H]1C(O)O[C@H](CO)[C@@H](O)[C@@H]1O (some centres unmarked) [glucosamine] | without value |
